Reference: US12263248B2, “Compounds and compositions for intracellular delivery of therapeutic agents” (ModernaTX, Inc., priority 2018, dated 2025)

Key:
[1] = Encapsulation efficiency of RNA (QUANT-IT RIBOGREEN RNA assay); format: physicochemical; details: Table 1A
Summary of the method: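 RiboGreen fluorescence (ex ~480, em ~520 nm) compared between intact samples and Triton X-100-lysed samples after 15 min at 37 °C in TE buffer, pH 7.5. Percent free RNA is the blank-corrected intact/disrupted ratio.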

[2] = test system: luciferase (Luc) mRNA; assay: Luc expression in liver, lung, spleen and femur 6 hours after intravenous administration; format: in vivo; details: mice, 0.5 mpk; for Total Flux Liver / Total Flux Lung / Total Flux Spleen: intravenous; for Flux in the spleen: i.v., in words
Summary of the method: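 LNP-formulated mRNA given IV to mice (n=3) at 0.5 mpk; at 6 h, bioluminescence imaged ex vivo 15 min after IP D-luciferin (15 mg/mL, 200 μL), organs imaged within 25 min. Values are total flux by region of interest.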

[3] = Particle size and polydispersity index of nanoparticle compositions (Zetasizer Nano ZS); format: physicochemical; details: Table 1A; for Size (nm): lipid:DSPC:cholesterol:PEG-DMG 50:10:38.5:1.5 mol %
Summary of the method: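 Measured in 1×PBS by Zetasizer Nano ZS.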

[4] = test system: luciferase (Luc) mRNA; assay: Luc expression, whole body bioluminescence after intravenous administration to mice; format: in vivo; details: for 6 h Lipid/MC3 Avg. Luc Expression / Fold increase AUC Lipid/MC3 / AUC (h * p/s): Table 3C; for 6 h Lipid/MC3 Avg. Luc Expression / Fold increase AUC Lipid/MC3 / AUC (h * p/s) / Fold increase in total body Luc Flux relative to MC3 at 6 h: i.v. administration; for AUC (h * p/s): Luc; for Total Flux 3 hours / Total Flux 6 hours / Total Flux 24 hours: mice, i.v., 0.5 mg/kg, Luc mRNA; for Fold increase in total body Luc Flux relative to MC3 at 6 h: Table 3A
Summary of the method: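 Bioluminescence, read as region-of-interest total flux at 3, 6 and 24 h, followed a single 0.5 mg/kg intravenous dose of Luc mRNA-loaded nanoparticles in mice (n=6). Luciferin substrate (200 μL, 15 mg/mL in PBS) was injected intraperitoneally into CD-1 mice 15 minutes ahead of each imaging point.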

[5] = Apparent (surface) pKa of the LNP formulation (TNS assay); format: physicochemical; details: Table 1A
Experimental: Using sodium hydroxide (1 M) and hydrochloric acid (1 M), 21 unique buffers were prepared from the master buffer stock at pH values between about 3 and 12. Next, a stock of 300 μM 6-(p-Toluidino)-2-naphthalenesulfonic acid sodium salt (TNS reagent) in DMSO was prepared and the LNP was mixed with the desired formulation buffer at a concentration of 0.04 mg/mL mRNA. This assay has been validated in 1× PBS and 20 mM Tris w/8% sucrose buffer. The buffer solutions at various pH values were added to a 96-well plate in triplicate for each pH. To each well was added 3.26 μL of LNP sample at a mRNA concentration of 0.04 mg/mL and 2.0 μL of 300 μM TNS reagent solution. After careful mixing, the resulting fluorescence values were read for each plate to create a sigmoidal plot of the fluorescence values vs. buffer pH. The […] inflection point of this curve is the apparent pKa of the LNP formulation.

| SMILES | EE (%) [1] [%] | Total Flux Liver [2] | Total Flux Lung [2] | Total Flux Spleen [2] | PDI [3] | Size (nm) [3] [nm] | 6 h Lipid/MC3 Avg. Luc Expression [4] | Fold increase AUC Lipid/MC3 [4] | AUC (h * p/s) [4] [h * p/s] | Total Flux 3 hours [4] | Total Flux 6 hours [4] | Total Flux 24 hours [4] | pKa [5] | Flux in the spleen [2] | Fold increase in total body Luc Flux relative to MC3 at 6 h [4] |
| --- | --- | --- | --- | --- | --- | --- | --- | --- | --- | --- | --- | --- | --- | --- | --- |
| CCCCCCCCCOC(=O)CCCCCCCN(CCCCCCCC(=O)OC(CCCCCCCC)CCCCCCCC)CCN1CCN(C)CC1 [Compound 101, Heptadecan-9-yl 8-((2-(4-methylpiperazin-1-yl)ethyl)(8-(nonyloxy)-8-oxooctyl)amino)octanoate] | 98.96 | 1.27E+07 | 1.77E+05 | 5.60E+06 | 0.230 | 91.7 | 0.019 | 0.022 | 1.8E+09 | 1.89E+08 | 1.41E+08 | 3.64E+06 | 7.27 | – | – |
| CCCCCCCCCOC(=O)CCCCCCCN(CCCCCCCC(=O)OC(CCCCCCCC)CCCCCCCC)CCN1CCOCC1 [Compound 103, Heptadecan-9-yl 8-((2-morpholinoethyl)(8-(nonyloxy)-8-oxooctyl)amino)octanoate] | 90.77 | 8.48E+07 | 2.06E+05 | 2.65E+06 | 0.160 | 78.8 | 0.250 | 0.291 | 2.4E+10 | 2.68E+09 | 1.82E+09 | 9.45E+07 | 6.13 | – | – |
| CCCCCCCCCOC(=O)CCCCCCCN(CCO)CCCCCCCC(=O)Oc1ccc(CCCCC)c(CCCCC)c1 [Compound 118, 3,4-Dipentylphenyl 8-((2-hydroxyethyl)(8-(nonyloxy)-8-oxooctyl)amino)octanoate] | 98 | 1.72E+08 | 1.98E+06 | 2.49E+07 | 0.08 | 72.1 | – | – | – | 1.46E+09 | 1.16E+09 | 4.37E+07 | 6.14 | – | – |
| CCCCCCCCC(CCCCCCCC)OC(=O)CCCCCCCN(C)CCCCCCCC(=O)OC(CCCCCCCC)CCCCCCCC [Compound 124, Di(heptadecan-9-yl) 8,8′-(methylazanediyl)dioctanoate] | 97.7 | 8.46E+06 | 5.67E+04 | 8.06E+04 | 0.1 | 61.3 | – | – | – | 6.62E+07 | 3.91E+09 | 5.13E+06 | 5.89 | lowest | – |
| CCCCCCCCCOC(=O)CCCN(C)CCCCCCCC(=O)OC(CCCCCCCC)CCCCCCCC [Compound 126, Heptadecan-9-yl 8-(methyl(4-(nonyloxy)-4-oxobutyl)amino)octanoate] | 96.8 | 7.41E+08 | 2.68E+06 | 1.87E+07 | 0.18 | 77.4 | – | – | – | 7.59E+09 | 1.09E+10 | 1.40E+08 | 6.00 | – | – |
| CCCCCCCCCOC(=O)CCCCCCCN(CCO)CCCCCCCCCOP(=O)(OCCCCCCCCC)OCCCCCCCCC [Compound 127, Nonyl 8-((9-((bis(nonyloxy)phosphoryl)oxy)nonyl)(2-hydroxyethyl)amino)octanoate] | 89.5 | 1.94E+08 | 5.26E+06 | 3.21E+08 | 0.19 | 110.4 | – | – | – | 3.81E+09 | 2.09E+09 | 4.56E+08 | 6.98 | – | 0.094 |
| CCCCCCCCCCCOC(=O)CCCCCN(CCO)CCCCCCCC(=O)N(CCCCCCCC)CCCCCCCC [Compound 129, Undecyl 6-((8-(dioctylamino)-8-oxooctyl)(2-hydroxyethyl)amino)hexanoate] | 77.2 | 6.65E+08 | 9.89E+06 | 5.09E+08 | 0.19 | 86.3 | – | – | – | 5.97E+09 | 4.51E+09 | 2.22E+08 | 7.3 | highest | 0.203 |
| CCCCCCCCC(C)OC(=O)CCCCCCCN(CCO)CCCCCCCC(=O)N(CCCCCCCC)CCCCCCCC (stereo not drawn) [Compound 130, Decan-2-yl 8-((8-(dioctylamino)-8-oxooctyl)(2-hydroxyethyl)amino)octanoate] | 97 | 8.17E+09 | 5.88E+07 | 1.35E+09 | 0.13 | 107.1 | – | – | – | 6.26E+10 | 8.92E+10 | 1.08E+09 | 6.83 | highest | 4.02 |
| CCCCCCCCCOC(=O)CCCCCCCN(CCO)CCCCCCCOP(=O)(OCCCCCCCC)OCCCCCCCC [Compound 131, Nonyl 8-((7-((bis(octyloxy)phosphoryl)oxy)heptyl)(2-hydroxyethyl)amino)octanoate] | 75.44 | 3.52E+08 | 1.45E+07 | 8.32E+08 | 0.095 | 167.9 | 1.05 | 1.13 | 9.29E+10 | 6.97E+09 | 7.64E+09 | 2.47E+08 | 7.76 | – | – |
| CCCCCCCCOP(=O)(OCCCCCCCC)OCCCCCCCN(CCO)CCCCCCCC(=O)OC(C)CCCCCCCC (stereo not drawn) [Compound 132, Decan-2-yl 8-((7-((bis(octyloxy)phosphoryl)oxy)heptyl)(2-hydroxyethyl)amino)octanoate] | 30.77 | 1.49E+08 | 1.39E+07 | 3.37E+08 | 0.180 | 298.0 | 0.187 | 0.212 | 1.75E+10 | 1.77E+09 | 1.36E+09 | 5.31E+07 | 7.34 | – | – |
| CCCCCCCCC(CCCCCC)C(=O)OCCCCCCCCCN(CCO)CCCCCCCCCOC(=O)C(CCCCCC)CCCCCCCC (stereo not drawn) [Compound 133, ((2-Hydroxyethyl)azanediyl)bis(nonane-9,1-diyl) bis(2-hexyldecanoate)] | 91.48 | 2.94E+09 | 3.18E+06 | 1.77E+07 | 0.098 | 66.0 | 4.02 | 4.39 | 3.62E+11 | 3.32E+10 | 2.93E+10 | 4.74E+08 | 6.38 | – | – |
| CCCCCCCCCOC(=O)CCCCCCCN(CCO)CCCCCCCCCOC(=O)C(CCCCCC)CCCCCCCC (stereo not drawn) [Compound 134, 9-((2-Hydroxyethyl)(8-(nonyloxy)-8-oxooctyl)amino)nonyl 2-hexyldecanoate] | 94.62 | 1.73E+09 | 2.82E+06 | 1.85E+07 | 0.110 | 85.6 | 3.99 | 4.16 | 3.43E+11 | 2.01E+10 | 2.91E+10 | 8.00E+08 | 6.66 | – | – |
